Key:
[1] = tested on: peptide-specific T-cells from the bone marrow (BMTCs); experiment: IFN-γ Enzyme-Linked Immuno Assay (ELISpot); format: cell-based, human; conditions: for patients significantly reacted against peptide: BMTCs of 15 female breast cancer patients, insulin p34 negative control, 10 μg/ml peptide; for reaction of T cells in ELISpot: vs insulin
Procedure: Mononuclear cells (MNC) from periphery blood (PB) and bone marrow (BM) were isolated via Ficoll gradients (Biocoll separating solution, Biochrom AG). MNC were washed two times with RPMI 1640, transferred to uncoated cell culture dishes, and grown for two hours at 37° C., 5% CO2 in x-VIVO-20 media (BioWhittaker, Walkersville, Md.) for adhesion. Adherent cells were cultivated for 7 day in x-VIVO-20 media with the addition of GM-CSF ([…]; Behringwerke, Marburg) and IL-4 (1000 U/ml; Promocell, Heidelberg). Dendritic cells (DCs) were magnetically isolated via anti-CD-3-coated and anti-CD-19-coated magnetic beads (Dynal). Non-adherent cells were cultivated for 7 days in RPMI 1640 supplemented with 8% human AB sera (Sigma), rhuIL-2 (100 U/ml; Chiron, Ratingen) and IL-4 (60 U/ml). T cells (TCs) were purified via anti-CD-56-coated, anti-CD-19-coated and anti-CD-15-coated magnetic beads.
The number of peptide-specific T-cells from the bone marrow (BMTCs) of female patients is determined by the ELISpot method. For this purpose, a 96-well ELISpot plate (Millipore) is coated with anti-human-IFNγ antibodies (ELISpot Kit, Mabtech) over night at 4° C. and then one hour blocked with RPMI 5% AB sera (37° C., 5% CO2). 10^4 DCs, 10^5 TCs and 10 μg/ml peptide are cultivated on the IFN-γ-coated ELISpot plate for 40 hours (37° C., 5% CO2). Supernatants are discarded and the plate is developed via the ELISpot kit (Mabtech). IFN-γ producing cells are counted with Axioplan Mikroskop (Zeiss) by using the KS ELISpot software. For negative controls, HIV or insulin peptides are used. Each group is determined in triplicate. Positive results are measured via the so-called T-test (p<0.05).

CD8-positive T cells = experiment: Tetramer staining (HLA-A2/peptide tetramers, flow cytometry); format: cell-based, human; conditions: 2 examined patients (text summary of Table 4)
Procedure: 10^6 of each BM-MNC and PB-MNC are blocked with 5% endobulin (immunoglobulin G), incubated with tetramers on ice for 45 min and then stained with CD8-FITC (Becton Dickinson). Dead cells are identified by propidium iodide. The number of T-cells which are double positive for CD8 and tetramer are determined by flow cytometry.

Row | Substance | patients significantly reacted against peptide [1] [%] | reaction of T cells in ELISpot ([1]; MaCa patient 503) | reaction of T cells in ELISpot ([1]; MaCa patient 639) | reaction of T cells in ELISpot ([1]; MaCa patient 704) | HLA-A2peptide staining of CD8-positive T cells (CD8-positive T cells) | reaction of T cells in ELISpot ([1]; MaCa patient 579) | reaction of T cells in ELISpot ([1]; MaCa patient 581) | reaction of T cells in ELISpot ([1]; MaCa patient 753) | reaction of T cells in ELISpot ([1]; MaCa patient 790) | reaction of T cells in ELISpot ([1]; MaCa patient 590) | reaction of T cells in ELISpot ([1]; MaCa patient 923)
1 | A L P P P L M L L (ALPPPLMLL) [Hpa p8] | 20 | x (x = positive (p value < 0.05) reaction of T cells in ELISpot) | x (x = positive (p value < 0.05) reaction of T cells in ELISpot) | x (x = positive (p value < 0.05) reaction of T cells in ELISpot) | enriched fractions of CD8-positive T cells |  |  |  |  |  | 
2 | D L I F G L N A L (DLIFGLNAL) [Hpa p183] | 40 | x (x = positive (p value < 0.05) reaction of T cells in ELISpot) | x (x = positive (p value < 0.05) reaction of T cells in ELISpot) |  |  | x (x = positive (p value < 0.05) reaction of T cells in ELISpot) | x (x = positive (p value < 0.05) reaction of T cells in ELISpot) | x (x = positive (p value < 0.05) reaction of T cells in ELISpot) | x (x = positive (p value < 0.05) reaction of T cells in ELISpot) |  | 
3 | L L L G P L G P L (LLLGPLGPL) [Hpa p16] | 33 | x (x = positive (p value < 0.05) reaction of T cells in ELISpot) | x (x = positive (p value < 0.05) reaction of T cells in ELISpot) |  | enriched fractions of CD8-positive T cells | x (x = positive (p value < 0.05) reaction of T cells in ELISpot) |  |  | x (x = positive (p value < 0.05) reaction of T cells in ELISpot) | x (x = positive (p value < 0.05) reaction of T cells in ELISpot) | x (x = positive (p value < 0.05) reaction of T cells in ELISpot)
